In this assay the target is T1, AMPK beta 1 (Homo sapiens, UniProt Q13131+Q9Y478).
T1 construct: in-cell-ELISA for phospho-ACC (Acetyl-CoA carboxylase 1) in HepG2 cells (liver); endogenous in cells; host or cells: HepG2
T1 sequence (Q9Y478 whole entry): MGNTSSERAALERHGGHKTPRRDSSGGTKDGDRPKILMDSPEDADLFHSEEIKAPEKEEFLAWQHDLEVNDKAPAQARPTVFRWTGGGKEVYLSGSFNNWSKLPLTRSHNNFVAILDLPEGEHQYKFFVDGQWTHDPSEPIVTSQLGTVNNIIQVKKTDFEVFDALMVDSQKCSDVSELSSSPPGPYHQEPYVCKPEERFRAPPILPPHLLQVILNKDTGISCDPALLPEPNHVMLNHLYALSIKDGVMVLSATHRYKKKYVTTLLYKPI
T1 sequence (Q13131 whole entry): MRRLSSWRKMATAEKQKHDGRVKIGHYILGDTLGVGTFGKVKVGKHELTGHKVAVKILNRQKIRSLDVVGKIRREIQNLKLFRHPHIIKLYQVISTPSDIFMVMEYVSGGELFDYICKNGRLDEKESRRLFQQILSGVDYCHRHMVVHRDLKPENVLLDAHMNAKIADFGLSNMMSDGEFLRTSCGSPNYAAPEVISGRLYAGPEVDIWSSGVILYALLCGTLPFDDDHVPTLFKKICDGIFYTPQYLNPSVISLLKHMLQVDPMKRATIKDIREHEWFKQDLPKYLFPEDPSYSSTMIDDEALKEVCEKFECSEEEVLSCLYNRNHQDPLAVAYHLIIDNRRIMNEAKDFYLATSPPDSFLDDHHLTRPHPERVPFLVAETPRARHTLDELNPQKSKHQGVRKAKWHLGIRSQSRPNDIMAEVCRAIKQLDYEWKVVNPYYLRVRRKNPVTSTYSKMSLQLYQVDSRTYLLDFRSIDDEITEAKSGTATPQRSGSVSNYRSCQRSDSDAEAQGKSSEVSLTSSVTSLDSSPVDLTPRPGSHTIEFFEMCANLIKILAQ
T1 sequence (P54619 whole entry partner): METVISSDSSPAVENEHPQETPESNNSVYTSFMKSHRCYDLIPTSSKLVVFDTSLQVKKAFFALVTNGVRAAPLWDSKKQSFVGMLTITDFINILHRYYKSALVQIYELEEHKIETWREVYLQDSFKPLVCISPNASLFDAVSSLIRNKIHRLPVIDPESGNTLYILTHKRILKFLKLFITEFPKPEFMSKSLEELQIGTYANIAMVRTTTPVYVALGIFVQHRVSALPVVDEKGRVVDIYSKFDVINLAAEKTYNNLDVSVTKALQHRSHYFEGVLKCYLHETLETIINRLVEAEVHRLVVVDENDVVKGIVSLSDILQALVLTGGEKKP
Description: in-cell-ELISA for phospho-ACC, Activity beta 1. The format is cell-based. The settings on record: 2 h, serum free DMEM, percentage activation over vehicle control, cell line not given (HepG2 or C2C12 myotubes). The protocol:
Activation of AMPK by various compounds were measured using in-cell-ELISA for phospho-ACC (Acetyl-CoA carboxylase 1) in HepG2 cells (liver) and fully differentiated myotubes (C2C12 cells) grown in 96 well plate. Cells were treated with 1 μM of the molecule for 2 h in serum free DMEM media. After methanol fixation, cells were blocked with BSA followed by addition of anti-phospho ACC antibody (Cell Signaling) and HRP conjugated secondary antibody. Absorbance values taken at 450 nm and were normalized with total DNA (Hoechest stain). Results were expressed as percentage activation over vehicle control.
(In general: In an ELISA, binding on a coated surface is turned into a signal by an enzyme label.)
The compound `COc1ccc(C=C2C(=O)Nc3cc(F)c(-c4ccc(-c5ccccc5O)cc4)cc32)cc1CC(=O)O` [Example 7] gave an activation at 1 µM of over 40%.
On to `COc1ccc(C=C2C(=O)Nc3cc(F)c(-c4ccc(-c5ccc(-n6cncn6)cc5)cc4)cc32)cc1CC(=O)O` [Example 59], for which the activation at 1 µM was over 40%.
`Cn1cc(C=C2C(=O)Nc3cc(Cl)c(-c4ccc(-c5ccc(-n6cncn6)cc5)cc4)cc32)cc1C(=O)O` [Example 63]: the activation at 1 µM is over 40%.
Compound `Cc1ccc(C=C2C(=O)Nc3cc(F)c(-c4ccc(-c5ccccc5O)cc4)cc32)cc1CC(=O)O` [Example 3] yielded an activation at 1 µM of over 40%.
The compound `Cc1ccc(C=C2C(=O)Nc3cc(F)c(-c4ccc(-c5ccc(-n6cccn6)cc5)cc4)cc32)cc1C(=O)O` [Example 61] yielded an activation at 1 µM of over 40%.
For the compound `Cn1cc(C=C2C(=O)Nc3cc(Cl)c(-c4ccc(-c5ccccc5)cc4)cc32)cc1C(=O)O` [Example 23], the activation at 1 µM is under 20%.
On the same count and under the same terms, the value for `O=C(O)Cc1cccc(C=C2C(=O)Nc3cc(Cl)c(-c4ccc(-c5ccccc5O)nc4)cc32)c1` [Example 35] was under 20%.
Same read-out and setting: the value for `Cc1ccc(C=C2C(=O)Nc3cc(Cl)c(-c4ccc(-c5ccccc5O)cn4)cc32)cc1C(=O)O` [Example 32] was under 20%; that for `COc1ccc(C=C2C(=O)Nc3cc(Cl)c(-c4ccc(-c5ccc(-n6cccn6)cc5)cc4)cc32)cc1CC(=O)O` [Example 49] was over 40%.
Same read-out and setting: the result for `O=C1Nc2cc(Cl)c(-c3ccc(-c4ccccc4O)cc3)cc2C1=Cc1csc(C(=O)O)n1` [Example 22] reads under 20%; that for `Cc1ccc(C=C2C(=O)Nc3cc(Cl)c(-c4ccc(-c5ccccc5O)cc4)cc32)cc1C(=O)O` [Example 9], over 40%; that for `Cc1ccc(C=C2C(=O)Nc3cc(Cl)c(-c4ccc(-c5ccccc5O)cc4)cc32)cc1` [Example 18], under 20%.
The compound `O=C1Nc2cc(Cl)c(-c3ccc(-c4ccccc4O)cc3)cc2C1=Cc1c[nH]c(C(=O)O)c1` [Example 16] gave an activation at 1 µM of under 20%.
Regarding `Cc1ccc(C=C2C(=O)Nc3cc(F)c(-c4ccc(-c5ccccc5O)cc4)cc32)cc1C(=O)O` [Example 2], the activation at 1 µM lay in the range of 20 to 40%.
`O=C(O)Cc1ccc(C=C2C(=O)Nc3cc(F)c(-c4ccc(-c5ccccc5O)cc4)cc32)cc1` [Example 4] returned an activation at 1 µM of under 20%.
The same measure, in the same setting: the value for `COc1ccc(C=C2C(=O)Nc3cc(Cl)c(-c4ccc(-c5ccccc5O)cc4)nc32)cc1CC(=O)O` [Example 37] was over 40%; that for `COc1ccc(C=C2C(=O)Nc3cc(Cl)c(-c4ccc(-c5ccc(-n6cncn6)cc5)c(F)c4)cc32)cc1CC(=O)O` [Example 60] was over 40%.
The same measure, in the same setting: the result for `Cn1cc(C=C2C(=O)Nc3cc(F)c(-c4ccc(-c5ccncc5)cc4)cc32)cc1C(=O)O` [Example 43] reads under 20%; that for `COc1ccc(C=C2C(=O)Nc3cc(Cl)c(-c4ccc(-c5ccc(-n6ccnc6C)cc5)cc4)cc32)cc1CC(=O)O` [Example 66], under 20%.
The compound `Cc1ccc(C=C2C(=O)Nc3cc(F)c(-c4ccc(-c5ccc(-n6ccnn6)cc5)cc4)cc32)cc1C(=O)O` [Example 64] registered an activation at 1 µM of over 40%.
The same measure, in the same setting: the result for `Cc1ccc(C=C2C(=O)Nc3cc(F)c(-c4ccc(-c5ccc(-n6cncn6)cc5)cc4)cc32)cc1C(=O)O` [Example 65] reads over 40%; that for `Cc1ccc(C=C2C(=O)Nc3cc(Cl)c(-c4ccc(-c5ccccc5O)cc4)nc32)cc1CC(=O)O` [Example 36], 20 to 40%.
Still for that read-out and setting: the value for `CC(=C1C(=O)Nc2cc(F)c(-c3ccc(-c4ccccc4O)cc3)cc21)c1cccc(CC(=O)O)c1` [Example 8] was under 20%.
Still for that read-out and setting: the value for `Cn1cc(CC(=O)O)cc1C=C1C(=O)Nc2cc(Cl)c(-c3ccc(-c4ccccc4O)cc3)cc21` [Example 17] was under 20%; that for `O=C(O)COc1cccc(C=C2C(=O)Nc3cc(Cl)c(-c4ccc(-c5ccccc5O)cc4)cc32)c1` [Example 10] was under 20%.
`Cc1ccc(C=C2C(=O)Nc3cc(Cl)c(-c4ccc(-c5ccccc5O)nc4)cc32)cc1CC(=O)O` [Example 33] displayed an activation at 1 µM of under 20%.
On the same count and under the same terms, the value for `Cn1ccc(C=C2C(=O)Nc3cc(Cl)c(-c4ccc(-c5ccccc5O)cc4)cc32)c1` [Example 19] was over 40%; that for `Cc1ccc(C=C2C(=O)Nc3cc(Cl)c(-c4ccc(-c5ccncc5)cc4)cc32)cc1CC(=O)O` [Example 39] was 20 to 40%; that for `COc1ccc(C=C2C(=O)Nc3cc(Cl)c(-c4ccc(-c5ccccc5O)cc4)nc32)cc1C(=O)O` [Example 38] was 20 to 40%.
For `Cn1nc(C=C2C(=O)Nc3cc(Cl)c(-c4ccc(-c5ccccc5O)cc4)cc32)cc1C(=O)[O-].[Na+]` (mixture of isomers) [Example 21, Sodium 3-{(E/Z)-[6-chloro-5-(2′-hydroxybiphenyl-4-yl)-2-oxo-1,2-dihydro-3H-indol-3-ylidene]methyl}-1-methyl-1H-pyrazole-5-carboxylate], the “Activity beta 1 (at 1 uM)” value is reported as “* (* <20)”.
`Cc1ccc(C=C2C(=O)Nc3cc(Cl)c(-c4ccc(-c5ccc(-n6cncn6)cc5)cc4)cc32)cc1CC(=O)O` [Example 50] had an activation at 1 µM of 20 to 40%.
Take `Cn1ccc(C=C2C(=O)N(CC(=O)O)c3cc(Cl)c(-c4ccc(-c5ccccc5O)cc4)cc32)c1` (racemic) [Example 25, {(3E/32)-6-Chloro-5-(2′-hydroxybiphenyl-4-yl)-3-[(1-methyl-1H-pyrrol-3-yl)methylidene]-2-oxo-2,3-dihydro-1H-indol-1-yl}acetic acid]: the activation at 1 µM is under 20%.
`C/C(=C1/C(=O)Nc2cc(F)c(-c3ccc(-c4ccccc4O)cc3)cc21)c1cccc(CC(=O)N2CCCC2)c1` [Example 24, (3Z)-6-Fluoro-5-(2′-hydroxybiphenyl-4-yl)-3-(1-{3-[2-oxo-2-(pyrrolidin-1-yl)ethyl]phenyl}ethylidene)-1,3-dihydro-2H-indol-2-one] returned an activation at 1 µM of under 20%.
Same read-out and setting: the result for `Cc1ccc(C=C2C(=O)Nc3cc(Cl)c(-c4ccc(-c5ccccc5O)cn4)cc32)cc1CC(=O)O` [Example 31] reads under 20%.
Same read-out and setting: the result for `O=C(O)Cc1cccc(C=C2C(=O)Nc3cc(F)c(-c4ccc(-c5ccccc5O)cc4)cc32)c1` [Example 5] reads over 40%.
`Cn1nc(/C=C2\C(=O)Nc3cc(Cl)c(-c4ccc(-c5ccccc5O)cc4)cc32)cc1C(=O)O` [Example 20, 3-{(Z)-[6-chloro-5-(2′-hydroxybiphenyl-4-yl)-2-oxo-1,2-dihydro-3H-indol-3-ylidene]methyl}-1-methyl-1H-pyrazole-5-carboxylic acid] showed an activation at 1 µM of under 20%.
On the same count and under the same terms, the result for `Cn1c(C=C2C(=O)Nc3cc(Cl)c(-c4ccc(-c5ccc(-n6cncn6)cc5)cc4)cc32)ccc1C(=O)O` [Example 69] reads over 40%.
`Cc1ccc(C=C2C(=O)Nc3cc(Cl)c(-c4ccc(-c5ccccc5O)cc4)cc32)cc1CC(=O)O` (racemic) [Example 1, (5-{(E/Z)-[6-Chloro-5-(2′-hydroxybiphenyl-4-yl)-2-oxo-1,2-dihydro-3H-indol-3-ylidene]methyl}-2-methylphenyl)acetic acid] displayed an activation at 1 µM of over 40%.
In the case of `Cc1ccc(C=C2C(=O)Nc3cc(F)c(-c4cccc(-c5ccccc5O)c4)cc32)cc1CC(=O)O` (single isomer, unassigned) [Example 30, (5-{(E/Z)-[6-Fluoro-5-(2′-hydroxybiphenyl-3-yl)-2-oxo-1,2-dihydro-3H-indol-3-ylidene]methyl}-2-methylphenyl)acetic acid], the activation at 1 µM was under 20%.
Same read-out and setting: the value for `O=C(O)Cc1cc(C=C2C(=O)Nc3cc(Cl)c(-c4ccc(-c5ccccc5O)cc4)cc32)ccc1O` (racemic) [Example 12, (5-{(E/Z)-[6-Chloro-5-(2′-hydroxybiphenyl-4-yl)-2-oxo-1,2-dihydro-3H-indol-3-ylidene]methyl}-2-hydroxyphenyl)acetic acid] was under 20%; that for `Cc1ccc(C=C2C(=O)Nc3cc(F)c(-c4ccc(-c5ccncc5)cc4)cc32)cc1CC(=O)O` [Example 44] was under 20%; that for `Cc1ccc(C=C2C(=O)Nc3cc(Cl)c(-c4ncc(-c5ccccc5O)cn4)cc32)cc1CC(=O)O` [Example 45] was under 20%.
For the compound `COc1ccc(C=C2C(=O)Nc3cc(Cl)c(-c4ncc(-c5ccccc5O)cn4)cc32)cc1CC(=O)O` [Example 46], the activation at 1 µM was under 20%.
In turn, `Cn1c(C=C2C(=O)Nc3cc(Cl)c(-c4ccc(-c5ccccc5O)cc4)cc32)ccc1C(=O)O` [Example 14] had an activation at 1 µM of 20 to 40%.
Regarding `COc1ccc(C=C2C(=O)Nc3cc(Cl)c(-c4ccc(-c5ccccc5O)cn4)cc32)cc1CC(=O)O` [Example 34], the activation at 1 µM is under 20%.
Same read-out and setting: the value for `O=C(O)Cc1cccc(C=C2C(=O)Nc3cc(Cl)c(-c4ccc(-c5ccc(-n6cncn6)cc5)cc4)cc32)c1` [Example 52] was over 40%; that for `O=C1Nc2cc(Cl)c(-c3ccc(-c4ccccc4O)cc3)cc2C1=Cc1ccc(C(=O)O)[nH]1` [Example 15] was under 20%.
In turn, `CN1C(=O)C(=Cc2cc(C(=O)O)n(C)c2)c2cc(-c3ccc(-c4ccccc4O)cc3)c(Cl)cc21` [Example 29] gave an activation at 1 µM of under 20%.
`Cn1cc(C=C2C(=O)N(CCO)c3cc(Cl)c(-c4ccc(-c5ccccc5O)cc4)cc32)cc1C(=O)O` [Example 26] gave an activation at 1 µM of under 20%.

Source of the values: patent publication US20160368870A1, “OLEFIN SUBSTITUTED OXINDOLES HAVING AMPK ACTIVITY” (BOEHRINGER INGELHEIM INTERNATIONAL GMBH, priority 2013, published 2016).
